Measurements: PubChem BioAssay AID1259407 (Chemical Carcinogenesis Research Information System (CCRIS), 2018)
Activity calls are given as the source filed them. How the calls were made is not given here.

Tested on: CCRIS mutagenicity, Ames/micronucleus/aberration tests
Assay: CCRIS mutagenicity studies
[1] = Test System: AMES SALMONELLA TYPHIMURIUM, Strain/Indicator: TA100, Metabolic Activation: NONE, Method: PREINCUBATION
[2] = Test System: AMES SALMONELLA TYPHIMURIUM, Strain/Indicator: TA98, Metabolic Activation: NONE, Method: STANDARD PLATE
[3] = Test System: AMES SALMONELLA TYPHIMURIUM, Strain/Indicator: TA98, Metabolic Activation: RAT, LIVER, S-9, AROCLOR 1254, Method: STANDARD PLATE
[4] = Test System: AMES SALMONELLA TYPHIMURIUM, Strain/Indicator: TA100, Metabolic Activation: NONE, Method: STANDARD PLATE
[5] = Test System: AMES SALMONELLA TYPHIMURIUM, Strain/Indicator: TA100, Metabolic Activation: RAT, LIVER, S-9, AROCLOR 1254, Method: STANDARD PLATE
[6] = Test System: AMES SALMONELLA TYPHIMURIUM, Strain/Indicator: TA1538, Metabolic Activation: NONE, Method: STANDARD PLATE
[7] = Test System: AMES SALMONELLA TYPHIMURIUM, Strain/Indicator: TA1538, Metabolic Activation: RAT, LIVER, S-9, AROCLOR 1254, Method: STANDARD PLATE

Measured: mutagenic call

O=C(O)Cc1ccc(Cl)cc1
inactive: Test System: AMES SALMONELLA TYPHIMURIUM, Strain/Indicator: TA98, Metabolic Activation: NONE, Method: PREINCUBATION inactive; negative | Test System: AMES SALMONELLA TYPHIMURIUM, Strain/Indicator: TA98, Metabolic Activation: RAT LIVER S-9, PCB, Method: PREINCUBATION inactive; negative | [1] inactive; negative | Test System: AMES SALMONELLA TYPHIMURIUM, Strain/Indicator: TA100, Metabolic Activation: RAT LIVER S-9, PCB, Method: PREINCUBATION inactive; negative | Test System: AMES SALMONELLA TYPHIMURIUM, Strain/Indicator: TA104, Metabolic Activation: NONE, Method: PREINCUBATION inactive; negative | Test System: AMES SALMONELLA TYPHIMURIUM, Strain/Indicator: TA104, Metabolic Activation: RAT LIVER S-9, PCB, Method: PREINCUBATION inactive; negative | Test System: E.COLI, Strain/Indicator: WP2 UVRA, Metabolic Activation: NONE, Method: PREINCUBATION inactive; negative | Test System: E.COLI, Strain/Indicator: WP2 UVRA, Metabolic Activation: RAT LIVER S-9, PCB, Method: PREINCUBATION inactive; negative

O=C(c1ccccc1)[C@@H]1O[C@@H]1c1ccc(Br)cc1
inactive: [2] inactive; negative | [3] inactive; negative | [4] inactive; negative | [5] inactive; negative

OC[C@H]1O[C@@H](n2cnc3c2ncn2ccnc32)[C@H](O)[C@@H]1O
inactive: [1] inactive; negative

C=CC(=O)OC(C)(C)C
inactive: [2] inactive; negative | [3] inactive; negative | Test System: AMES SALMONELLA TYPHIMURIUM, Strain/Indicator: TA98, Metabolic Activation: RAT, LIVER, S-9, SODIUM PHENOBARBITAL, Method: STANDARD PLATE inactive; negative | [4] inactive; negative | [5] inactive; negative | Test System: AMES SALMONELLA TYPHIMURIUM, Strain/Indicator: TA100, Metabolic Activation: RAT, LIVER, S-9, SODIUM PHENOBARBITAL, Method: STANDARD PLATE inactive; negative | Test System: AMES SALMONELLA TYPHIMURIUM, Strain/Indicator: TA1535, Metabolic Activation: NONE, Method: STANDARD PLATE inactive; negative | Test System: AMES SALMONELLA TYPHIMURIUM, Strain/Indicator: TA1535, Metabolic Activation: RAT, LIVER, S-9, AROCLOR 1254, Method: STANDARD PLATE inactive; negative | Test System: AMES SALMONELLA TYPHIMURIUM, Strain/Indicator: TA1535, Metabolic Activation: RAT, LIVER, S-9, SODIUM PHENOBARBITAL, Method: STANDARD PLATE inactive; negative | Test System: AMES SALMONELLA TYPHIMURIUM, Strain/Indicator: TA1537, Metabolic Activation: NONE, Method: STANDARD PLATE inactive; negative | Test System: AMES SALMONELLA TYPHIMURIUM, Strain/Indicator: TA1537, Metabolic Activation: RAT, LIVER, S-9, AROCLOR 1254, Method: STANDARD PLATE inactive; negative | Test System: AMES SALMONELLA TYPHIMURIUM, Strain/Indicator: TA1537, Metabolic Activation: RAT, LIVER, S-9, SODIUM PHENOBARBITAL, Method: STANDARD PLATE inactive; negative | [6] inactive; negative | [7] inactive; negative | Test System: AMES SALMONELLA TYPHIMURIUM, Strain/Indicator: TA1538, Metabolic Activation: RAT, LIVER, S-9, SODIUM PHENOBARBITAL, Method: STANDARD PLATE inactive; negative

O=CN(O)c1ccc([N+](=O)[O-])cc1
active: Test System: AMES SALMONELLA TYPHIMURIUM, Strain/Indicator: TA98(NR), Metabolic Activation: NONE, Method: STANDARD PLATE active; positive | Test System: AMES SALMONELLA TYPHIMURIUM, Strain/Indicator: TA98(NR), Metabolic Activation: RAT, LIVER, S-9, AROCLOR 1254, Method: STANDARD PLATE active; positive | [2] active; positive | [3] active; positive | Test System: AMES SALMONELLA TYPHIMURIUM, Strain/Indicator: TA1538(NR), Metabolic Activation: NONE, Method: STANDARD PLATE active; positive | Test System: AMES SALMONELLA TYPHIMURIUM, Strain/Indicator: TA1538(NR), Metabolic Activation: RAT, LIVER, S-9, AROCLOR 1254, Method: STANDARD PLATE active; positive | [6] active; positive | [7] active; positive

Cc1cc2cc3cc(C)c(N)cc3nc2cc1N
active: Test System: AMES SALMONELLA TYPHIMURIUM, Strain/Indicator: TA98, Method: PREINCUBATION active; positive | Test System: AMES SALMONELLA TYPHIMURIUM, Strain/Indicator: TA100, Method: PREINCUBATION active; positive

O=c1c(-c2ccc(O)cc2)coc2cc(O)cc(O)c12
active: End Point: IN VITRO CHROMOSOMAL ABERRATIONS, Test System: HUMAN PERIPHERAL LYMPHOCYTES, Metabolic Activation: NONE active; positive (structural changes) | End Point: IN VITRO MICRONUCLEUS, Test System: CHINESE HAMSTER V79 CELLS, Metabolic Activation: NONE active; positive | End Point: IN VITRO MICRONUCLEUS, Test System: MOUSE LYMPHOMA L5178Y CELLS, Metabolic Activation: NONE active; positive | Test System: CHINESE HAMSTER V-79, Strain/Indicator: V-79 (HPRT)/6-THIOGUANINE, Metabolic Activation: NONE active; positive | Test System: MOUSE LYMPHOMA, Strain/Indicator: L5178Y TK+/-, Metabolic Activation: NONE active; positive (above 90 umol/l) | Test System: MOUSE LYMPHOMA, Strain/Indicator: L5178Y TK+/-, Metabolic Activation: S-9 active; positive | Test System: SYRIAN HAMSTER EMBRYO CELLS, Strain/Indicator: HPRT/6-THIOGUANINE, Metabolic Activation: NONE, Method: PLATE active; positive
inactive: End Point: IN VIVO CHROMOSOMAL ABERRATIONS, Test System: MAMMARY GLAND CELLS, USING DUAL PROBE FISH, Species: RAT, Strain/Sex: SPRAGUE-DAWLEY/FEMALE, Route: DIET inactive; negative | End Point: IN VIVO MICRONUCLEUS, Test System: MAMMARY GLAND CELLS, Species: RAT, Strain/Sex: SPRAGUE-DAWLEY/FEMALE, Route: DIET inactive; negative | End Point: MORPHOLOGICAL TRANSFORMATION, Test System: SYRIAN HAMSTER EMBRYO CELLS (SHE), Metabolic Activation: NONE inactive; negative

O=C1C[C@@H]2NCCCNCCCCN(CCCN1)C(=O)[C@@H]1c3cc2ccc3O[C@H]1c1ccc(O)cc1
active: Test System: AMES SALMONELLA TYPHIMURIUM, Strain/Indicator: TA98, Metabolic Activation: NONE active; positive | Test System: AMES SALMONELLA TYPHIMURIUM, Strain/Indicator: TA98, Metabolic Activation: RAT, LIVER, S-9 active; positive | Test System: AMES SALMONELLA TYPHIMURIUM, Strain/Indicator: TA100, Metabolic Activation: NONE active; positive | Test System: AMES SALMONELLA TYPHIMURIUM, Strain/Indicator: TA100, Metabolic Activation: RAT, LIVER, S-9 active; positive
inactive: Test System: AMES SALMONELLA TYPHIMURIUM, Strain/Indicator: TA97A, Metabolic Activation: NONE inactive; negative | Test System: AMES SALMONELLA TYPHIMURIUM, Strain/Indicator: TA97A, Metabolic Activation: RAT, LIVER, S-9 inactive; negative

O=S(c1cc(Cl)cc(Cl)c1O)c1cc(Cl)cc(Cl)c1O
active: [2] active; positive | [4] active; positive
inactive: Test System: AMES SALMONELLA TYPHIMURIUM, Strain/Indicator: TA97, Metabolic Activation: NONE, Method: STANDARD PLATE inactive; negative | Test System: AMES SALMONELLA TYPHIMURIUM, Strain/Indicator: TA97, Metabolic Activation: RAT, LIVER, S-9, AROCLOR 1254, Method: STANDARD PLATE inactive; negative | [3] inactive; negative | [5] inactive; negative | Test System: AMES SALMONELLA TYPHIMURIUM, Strain/Indicator: TA102, Metabolic Activation: NONE, Method: STANDARD PLATE inactive; negative | Test System: AMES SALMONELLA TYPHIMURIUM, Strain/Indicator: TA102, Metabolic Activation: RAT, LIVER, S-9, AROCLOR 1254, Method: STANDARD PLATE inactive; negative

Cc1nc(-c2ccc([N+](=O)[O-])o2)cs1
active: Test System: AMES SALMONELLA TYPHIMURIUM, Strain/Indicator: TA100, Metabolic Activation: RAT, LIVER, S-9, KC500 OR PHENOBARBITAL, Method: LIQUID SUSPENSION active; positive
